Test results as given in patent US6150359A, “Naphthyridinones for inhibiting protein tyrosine kinase and cell cycle kinase mediated cellular proliferation” (Warner-Lambert Company, priority 2000, dated 2000).

Biological target: T1, FGFr (human FGF-1 (flg) receptor tyrosine kinase) (Homo sapiens, UniProt P11362)
T1 construct: PCR primers are designed to amplify a fragment of DNA that codes for the intracellular tyrosine kinase domain; made in house; host or cells: Sf9 insect cells (baculovirus), cell lysate
Experiment: FGFr tyrosine kinase assay, 32P incorporation into glutamate-tyrosine copolymer
Type: biochemical
Experimental: Platelet Derived Growth Factor Receptor (PDGFr) and Fibroblast Growth Factor Receptor (FGFr). Full length cDNAs for the mouse PDGF-β and human FGF-1 (flg) receptor tyrosine kinases were obtained from J. Escobedo and are prepared as described in J. Biol. Chem., 1991;262:1482-1487. PCR primers are designed to amplify a fragment of DNA that codes for the intracellular tyrosine kinase domain. The fragment is melded into a baculovirus vector, cotransfected with AcMNPV DNA, and the recombinant virus isolated. SF9 insect cells are infected with the virus to overexpress the protein, and the cell lysate is used for the assay.
PDGFr and FGFr. […] Briefly, to each well is added 82.5 μL of incubation buffer containing 25 mM Hepes (pH 7.0), 150 mM NaCl, 0.1% Triton X-100, 0.2 mM PMSF, 0.2 mM sodium vanadate, 10 mM manganese chloride, and 750 μg/mL of poly (4:1) glutamate-tyrosine followed by 2.5 μL of inhibitor and 5 μL of enzyme lysate (7.5 μg/μL FGFR-TK or 6.0 μg/μL PDGFR-TK) to initiate the reaction. Following a 10 minute incubation at 25° C., 10 μL of [γ^32 P]ATP (0.4 μCi plus 50 μM ATP) is added to each well, and samples are incubated for an additional 10 minutes at 25° C. The reaction is terminated by the addition of 100 μL of 30% trichloroacetic acid (TCA) containing 20 mM sodium pyrophosphate and precipitation of material onto glass fiber filter mats (Wallac). […] Nonspecific activity is defined as radioactivity retained on the filters following incubation of samples with buffer alone; (no enzyme). Specific enzymatic activity is defined as total activity (enzyme plus buffer) minus nonspecific activity.

T1 sequence (P11362 478-767 limits assumed): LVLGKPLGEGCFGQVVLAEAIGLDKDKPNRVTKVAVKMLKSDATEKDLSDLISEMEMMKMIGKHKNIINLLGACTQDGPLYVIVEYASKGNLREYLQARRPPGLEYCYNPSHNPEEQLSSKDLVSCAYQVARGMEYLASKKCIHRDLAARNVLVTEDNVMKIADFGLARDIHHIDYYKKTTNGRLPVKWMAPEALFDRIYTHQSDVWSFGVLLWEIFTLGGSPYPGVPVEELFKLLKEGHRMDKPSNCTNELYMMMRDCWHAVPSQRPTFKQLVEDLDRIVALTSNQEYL

Structure (SMILES) | IC50
CCN(CC)CCCCNc1cc2c(cn1)cc(-c1c(Cl)cccc1Cl)c(=O)n2C [Example F, 3-(2,6-dichlorophenyl)-7-[4-(diethylamino)butylamino]-1-methyl-1H-[1,6]naphthyridin-2-one] | 70 nM
CN1CCN(CCCNc2cc3c(cn2)cc(-c2c(Cl)cccc2Cl)c(=O)n3C)CC1 [Example H, 3-(2,6-dichlorophenyl)-1-methyl-7-[3-(4-methylpiperazin-1-yl)propylamino]-1H-[1,6]naphthyridin-2-one] | 50 nM
